According to ChEMBL document CHEMBL3352328, “Synthesis and biological evaluation of a new series of N-acyldiamines as potential antibacterial and antifungal agents” (2014):
In brackets after ≈: the same amount, converted by molar mass. Activity calls are given as the source filed them. No cut-off for these calls is given here.

Experiments:
Staphylococcus aureus [1] = test: Antimicrobial activity against Staphylococcus aureus ATCC 29213 by broth dilution method; assay type: functional
[2] = test system: Staphylococcus epidermidis; test: Antimicrobial activity against Staphylococcus epidermidis ATCC 12228 by broth dilution method; assay type: functional
Escherichia coli [3] = test: Antimicrobial activity against Escherichia coli ATCC 11229 by broth dilution method; assay type: functional
Pseudomonas aeruginosa [4] = test: Antimicrobial activity against Pseudomonas aeruginosa ATCC 27853 by broth dilution method; assay type: functional
Staphylococcus aureus [5] = test: Bactericidal activity against Staphylococcus aureus ATCC 29213 after 24 hrs; assay type: functional; conditions: ATCC 29213, 24 h
[6] = test system: Staphylococcus epidermidis; test: Bactericidal activity against Staphylococcus epidermidis ATCC 12228 after 24 hrs; assay type: functional; conditions: ATCC 12228, 24 h
Escherichia coli [7] = test: Bacteriostatic activity against Escherichia coli ATCC 11229 after 24 hrs; assay type: functional, organism-based
Staphylococcus aureus [8] = test: Bactericidal activity against methicillin-resistant Staphylococcus aureus clinical isolate 1 after 24 hrs; assay type: functional; conditions: isolate 1, 24 h
Staphylococcus aureus [9] = test: Bactericidal activity against methicillin-resistant Staphylococcus aureus clinical isolate 2 after 24 hrs; assay type: functional; conditions: isolate 2, 24 h
Staphylococcus aureus [10] = test: Bactericidal activity against methicillin-resistant Staphylococcus aureus clinical isolate 3 after 24 hrs; assay type: functional; conditions: isolate 3, 24 h
Staphylococcus aureus [11] = test: Bactericidal activity against methicillin-resistant Staphylococcus aureus clinical isolate 4 after 24 hrs; assay type: functional; conditions: isolate 4, 24 h
Staphylococcus aureus [12] = test: Bactericidal activity against methicillin-resistant Staphylococcus aureus clinical isolate 5 after 24 hrs; assay type: functional; conditions: isolate 5, 24 h
Staphylococcus aureus [13] = test: Bactericidal activity against methicillin-resistant Staphylococcus aureus clinical isolate 6 after 24 hrs; assay type: functional; conditions: isolate 6, 24 h
Staphylococcus aureus [14] = test: Bactericidal activity against methicillin-resistant Staphylococcus aureus clinical isolate 7 after 24 hrs; assay type: functional; conditions: isolate 7, 24 h
Staphylococcus aureus [15] = test: Bactericidal activity against methicillin-resistant Staphylococcus aureus clinical isolate 8 after 24 hrs; assay type: functional; conditions: isolate 8, 24 h
Staphylococcus aureus [16] = test: Bactericidal activity against methicillin-resistant Staphylococcus aureus clinical isolate 9 after 24 hrs; assay type: functional; conditions: isolate 9, 24 h
Staphylococcus aureus [17] = test: Bactericidal activity against methicillin-resistant Staphylococcus aureus clinical isolate 10 after 24 hrs; assay type: functional; conditions: isolate 10, 24 h
Staphylococcus aureus [18] = test: Bactericidal activity against methicillin-resistant Staphylococcus aureus clinical isolate 11 after 24 hrs; assay type: functional; conditions: isolate 11, 24 h
Staphylococcus aureus [19] = test: Bactericidal activity against methicillin-resistant Staphylococcus aureus clinical isolate 12 after 24 hrs; assay type: functional; conditions: isolate 12, 24 h
Staphylococcus aureus [20] = test: Bactericidal activity against methicillin-resistant Staphylococcus aureus clinical isolate 13 after 24 hrs; assay type: functional; conditions: isolate 13, 24 h
Staphylococcus aureus [21] = test: Bactericidal activity against methicillin-resistant Staphylococcus aureus clinical isolate 14 after 24 hrs; assay type: functional; conditions: isolate 14, 24 h
Staphylococcus aureus [22] = test: Bactericidal activity against methicillin-resistant Staphylococcus aureus clinical isolate 15 after 24 hrs; assay type: functional; conditions: isolate 15, 24 h
Staphylococcus aureus [23] = test: Bactericidal activity against methicillin-resistant Staphylococcus aureus clinical isolate 16 after 24 hrs; assay type: functional; conditions: isolate 16, 24 h
Staphylococcus aureus [24] = test: Bactericidal activity against methicillin-resistant Staphylococcus aureus clinical isolate 17 after 24 hrs; assay type: functional; conditions: isolate 17, 24 h
Staphylococcus aureus [25] = test: Bactericidal activity against methicillin-resistant Staphylococcus aureus clinical isolate 18 after 24 hrs; assay type: functional; conditions: isolate 18, 24 h
Staphylococcus aureus [26] = test: Bactericidal activity against methicillin-resistant Staphylococcus aureus clinical isolate 19 after 24 hrs; assay type: functional; conditions: isolate 19, 24 h
Staphylococcus aureus [27] = test: Bactericidal activity against methicillin-resistant Staphylococcus aureus clinical isolate 20 after 24 hrs; assay type: functional; conditions: isolate 20, 24 h
Staphylococcus aureus [28] = test: Bactericidal activity against methicillin-resistant Staphylococcus aureus clinical isolate 21 after 24 hrs; assay type: functional; conditions: isolate 21, 24 h
Staphylococcus aureus [29] = test: Bactericidal activity against methicillin-resistant Staphylococcus aureus clinical isolate after 24 hrs; assay type: functional
Candida albicans = test: Antifungal activity against Candida albicans ATCC 18804 by broth microdilution method; assay type: functional
Candida tropicalis = test: Antifungal activity against Candida tropicalis ATCC 750 by broth microdilution method; assay type: functional
Nakaseomyces glabratus = test: Antifungal activity against Candida glabrata ATCC 90030 by broth microdilution method; assay type: functional
Candida parapsilosis = test: Antifungal activity against Candida parapsilosis ATCC 22019 by broth microdilution method; assay type: functional; conditions: Lodderomyces parapsilosis
Staphylococcus aureus [30] = test: Bacteriostatic activity against Staphylococcus aureus ATCC 29213 after 24 hrs; assay type: functional, organism-based
Pseudomonas aeruginosa [31] = test: Bacteriostatic activity against Pseudomonas aeruginosa ATCC 27853 after 24 hrs; assay type: functional, organism-based
Escherichia coli [32] = test: Bactericidal activity against Escherichia coli ATCC 11229 after 24 hrs; assay type: functional; conditions: ATCC 11229, 24 h
Pseudomonas aeruginosa [33] = test: Bactericidal activity against Pseudomonas aeruginosa ATCC 27853 after 24 hrs; assay type: functional; conditions: ATCC 27853, 24 h

Compound | MIC (Staphylococcus aureus [1]) [µg/mL] | MIC [2] [µg/mL] | MIC (Escherichia coli [3]) [µg/mL] | MIC (Pseudomonas aeruginosa [4]) [µg/mL] | MBC [6] [µg/mL] | Activity (Escherichia coli [7]) | MBC (Staphylococcus aureus [8]) [µg/mL] | MBC (Staphylococcus aureus [9]) [µg/mL] | MBC (Staphylococcus aureus [10]) [µg/mL] | MBC (Staphylococcus aureus [11]) [µg/mL] | MBC (Staphylococcus aureus [12]) [µg/mL] | MBC (Staphylococcus aureus [13]) [µg/mL] | MBC (Staphylococcus aureus [14]) [µg/mL] | MBC (Staphylococcus aureus [15]) [µg/mL] | MBC (Staphylococcus aureus [16]) [µg/mL] | MIC (Candida albicans) [µg/mL] | MIC (Candida tropicalis) [µg/mL] | MIC (Nakaseomyces glabratus) [µg/mL] | MIC (Candida parapsilosis) [µg/mL] | Activity (Staphylococcus aureus [30]) | also measured
CCCCCCCC/C=C\CCCCCCCC(=O)NCCCN | 2 (≈ 5.91 µM) | 1 (≈ 2.95 µM) | 4 (≈ 11.8 µM) | > 1020 | 16 (≈ 47.3 µM) | Active | 16 (≈ 47.3 µM) | 16 (≈ 47.3 µM) | 16 (≈ 47.3 µM) | 512 (≈ 1510 µM) | 16 (≈ 47.3 µM) | 64 (≈ 189 µM) | 16 (≈ 47.3 µM) | 16 (≈ 47.3 µM) | 16 (≈ 47.3 µM) | 2 (≈ 5.91 µM) | 4 (≈ 11.8 µM) | 4 (≈ 11.8 µM) | 4 (≈ 11.8 µM) | – | MBC (Staphylococcus aureus [5]): 128 µg/mL (≈ 378 µM); MBC (Staphylococcus aureus [17]): 8 µg/mL (≈ 23.6 µM); MBC (Staphylococcus aureus [18]): 16 µg/mL (≈ 47.3 µM); MBC (Staphylococcus aureus [19]): 16 µg/mL (≈ 47.3 µM); MBC (Staphylococcus aureus [20]): 64 µg/mL (≈ 189 µM); MBC (Staphylococcus aureus [21]): 1020 µg/mL (≈ 3020 µM); MBC (Staphylococcus aureus [22]): 16 µg/mL (≈ 47.3 µM); MBC (Staphylococcus aureus [23]): 8 µg/mL (≈ 23.6 µM); MBC (Staphylococcus aureus [24]): 16 µg/mL (≈ 47.3 µM); MBC (Staphylococcus aureus [25]): 8 µg/mL (≈ 23.6 µM); MBC (Staphylococcus aureus [26]): 4 µg/mL (≈ 11.8 µM); MBC (Staphylococcus aureus [27]): 1020 µg/mL (≈ 3020 µM); MBC (Staphylococcus aureus [28]): 512 µg/mL (≈ 1510 µM); MIC50 (Staphylococcus aureus [29]): 16 µg/mL (≈ 47.3 µM); MIC90 (Staphylococcus aureus [29]): 512 µg/mL (≈ 1510 µM)
CCC(C)n1ncn(-c2ccc(N3CCN(c4ccc(OCC5COC(Cn6cncn6)(c6ccc(Cl)cc6Cl)O5)cc4)CC3)cc2)c1=O (centres undefined) [ITRACONAZOLE] | – | – | – | – | – | – | – | – | – | – | – | – | – | – | – | 0.5 (≈ 0.709 µM) | > 512 | 256 (≈ 363 µM) | > 512 | – | –
O=C(N[C@H](CO)[C@H](O)c1ccc([N+](=O)[O-])cc1)C(Cl)Cl [CHLORAMPHENICOL] | – | 32 (≈ 99 µM) | – | 32 (≈ 99 µM) | 128 (≈ 396 µM) | Active | 64 (≈ 198 µM) | 4 (≈ 12.4 µM) | 4 (≈ 12.4 µM) | 8 (≈ 24.8 µM) | 4 (≈ 12.4 µM) | 8 (≈ 24.8 µM) | 64 (≈ 198 µM) | 64 (≈ 198 µM) | 8 (≈ 24.8 µM) | – | – | – | – | Active | Activity (Pseudomonas aeruginosa [31]): Active; MBC (Staphylococcus aureus [17]): 64 µg/mL (≈ 198 µM); MBC (Staphylococcus aureus [18]): 64 µg/mL (≈ 198 µM); MBC (Staphylococcus aureus [19]): 64 µg/mL (≈ 198 µM); MBC (Staphylococcus aureus [20]): 64 µg/mL (≈ 198 µM); MBC (Staphylococcus aureus [21]): 64 µg/mL (≈ 198 µM); MBC (Staphylococcus aureus [22]): 32 µg/mL (≈ 99 µM); MBC (Staphylococcus aureus [23]): 32 µg/mL (≈ 99 µM); MBC (Staphylococcus aureus [24]): 4 µg/mL (≈ 12.4 µM); MBC (Staphylococcus aureus [25]): 8 µg/mL (≈ 24.8 µM); MBC (Staphylococcus aureus [26]): 128 µg/mL (≈ 396 µM); MBC (Staphylococcus aureus [27]): 4 µg/mL (≈ 12.4 µM); MBC (Staphylococcus aureus [28]): 8 µg/mL (≈ 24.8 µM); MIC90 (Staphylococcus aureus [29]): 32 µg/mL (≈ 99 µM)
CCCCCCCCCCCC(=O)NCCCN | 256 (≈ 998 µM) | 32 (≈ 125 µM) | 128 (≈ 499 µM) | 64 (≈ 250 µM) | 32 (≈ 125 µM) | – | – | – | – | – | – | – | – | – | – | 256 (≈ 998 µM) | 128 (≈ 499 µM) | 32 (≈ 125 µM) | 64 (≈ 250 µM) | Active | MBC (Escherichia coli [32]): 512 µg/mL (≈ 2000 µM); MBC (Pseudomonas aeruginosa [33]): 256 µg/mL (≈ 998 µM)
CCCCCCCCCCCCCCCC(=O)NCCCCN | 512 (≈ 1570 µM) | 16 (≈ 49 µM) | 1020 (≈ 3140 µM) | > 1020 | 128 (≈ 392 µM) | – | – | – | – | – | – | – | – | – | – | 8 (≈ 24.5 µM) | 64 (≈ 196 µM) | 32 (≈ 98 µM) | 128 (≈ 392 µM) | Active | MBC (Escherichia coli [32]): 1020 µg/mL (≈ 3140 µM)
